Read-outs that look alike come from different tables or passages of the source.
What was measured:
TNKS2 = molecular target: T1, TNKS2 (Homo sapiens, UniProt Q9H2K2); test: biochemical; conditions: read-out: TNKS2 IC50; NAD+ consumption assay; > less than 50% inhibition at highest concentration, >> no inhibition
T1 sequence (Q9H2K2 1-1166): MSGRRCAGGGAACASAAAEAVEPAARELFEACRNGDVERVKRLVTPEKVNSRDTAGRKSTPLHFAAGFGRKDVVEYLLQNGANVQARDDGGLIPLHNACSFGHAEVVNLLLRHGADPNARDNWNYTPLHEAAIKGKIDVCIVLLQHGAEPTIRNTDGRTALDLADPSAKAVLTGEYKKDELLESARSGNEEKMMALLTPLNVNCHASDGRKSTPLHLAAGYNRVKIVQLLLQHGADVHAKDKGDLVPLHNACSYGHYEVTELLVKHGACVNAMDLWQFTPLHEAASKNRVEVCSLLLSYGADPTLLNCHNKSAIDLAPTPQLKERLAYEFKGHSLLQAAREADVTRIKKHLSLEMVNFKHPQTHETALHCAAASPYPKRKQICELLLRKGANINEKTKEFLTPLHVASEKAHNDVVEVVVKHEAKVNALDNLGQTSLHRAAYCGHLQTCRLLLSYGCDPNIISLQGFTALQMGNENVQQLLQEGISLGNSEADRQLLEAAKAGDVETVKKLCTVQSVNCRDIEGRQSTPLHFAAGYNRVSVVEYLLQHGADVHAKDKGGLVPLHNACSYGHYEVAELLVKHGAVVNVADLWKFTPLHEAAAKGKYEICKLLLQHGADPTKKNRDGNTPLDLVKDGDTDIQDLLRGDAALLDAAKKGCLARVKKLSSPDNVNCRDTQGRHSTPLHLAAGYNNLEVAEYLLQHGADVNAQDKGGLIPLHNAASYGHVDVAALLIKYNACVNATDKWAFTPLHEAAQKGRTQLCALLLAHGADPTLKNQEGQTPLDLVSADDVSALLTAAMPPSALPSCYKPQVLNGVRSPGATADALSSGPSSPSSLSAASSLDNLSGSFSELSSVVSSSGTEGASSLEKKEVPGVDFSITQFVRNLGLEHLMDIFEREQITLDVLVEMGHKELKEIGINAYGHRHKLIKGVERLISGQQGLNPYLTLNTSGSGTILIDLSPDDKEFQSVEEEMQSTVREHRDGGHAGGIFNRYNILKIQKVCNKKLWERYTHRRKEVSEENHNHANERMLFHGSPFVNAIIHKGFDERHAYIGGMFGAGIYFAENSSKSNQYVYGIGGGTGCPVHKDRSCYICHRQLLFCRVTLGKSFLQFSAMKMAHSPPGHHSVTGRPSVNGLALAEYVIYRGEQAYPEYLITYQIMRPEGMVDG
Experimental: (§1) All starting materials, reagents, and solvents were purchased from common commercial suppliers and were used as such without further purification. […] Organic solutions were dried over anhydrous Na2SO4 and concentrated with rotary evaporator at low pressure. All the reactions were routinely checked by thin-layer chromatography (TLC) on silica gel 60F254 (Merck) and visualized by using UV and iodine. Flash chromatography separations were carried out on Merck silica gel 60 (mesh 230-400) or by using automated Buchi Reveleris X2-UV with column FP Ecoflex Si 12 g. Yields were of purified products and were not optimized. ^1HNMR spectra were recorded at 400 MHz (Bruker Avance DRX-400), while ^13CNMR spectra were recorded at 101 MHz (Bruker Avance DRX-400). Chemical shifts are given in ppm (δ) relative to TMS. […] Mating constant (J) are reported in Hz. The purity of the tested compounds was evaluated by HPLC analysis using Jasco LC-4000 instrument equipped with a UV-Visible Diode Array Jasco-MD4015 (Jasco Corporation, Tokyo, Japan), and XTerra MS C18 column, 5 μm×4.6 mm×150 mm (Waters Corporation, Massachusetts, USA). Chromatograms were analyzed by ChromNAV2.0 Chromatography Data System software. […] The peak retention time (ret. time) is given in minutes. […] 1-Isobutoxy-4-methoxy-2-nitrobenzene (113). Isobutyl alcohol (0.6 mL, 6.43 mmol) was added, under nitrogen atmosphere at 0° C., to a suspension of NaH (0.26 g, 6.43 mmol) in dry DMF. After 15 minutes, 1-fluoro-4-methoxy-2-nitrobenzene 112 (1 g, 5.84 mmol) was also added and the reaction mixture was stirred at 80° C. for 4 h. […] (2-Isobutoxy-5-methoxyphenyl)amine (114). Zn (1.57 g, 24 mmol) and NH4C1 (2.45 g, 40 mmol) were added to a solution of 113 (0.46 g, 2 mmol) in acetone/H2O (50 mL, ratio 5:1). The reaction mixture was stirred at 60° C. for 3 h and, then, it was filtered over celite. […] N-(2,5-diethoxyphenyl)thiourea (55). […] N-(2-isobutoxy-5-methoxyphenyl)thiourea (115). […] A solution of Br2 (0.2 mL, 3.3 mmol) in CHCl3 (5 mL) was slowly added to a suspension of 45 (0.6 g, 3.3 mmol) in CHCl3 (13 mL), at 0° C. The reaction mixture was stirred at r.t. for 4 h and, then, a 10% solution of Na2SO3 in water was added to the mixture. […] 4,7-Diethoxy-1,3-benzothiazol-2-amine (66). […] 4-Isobutoxy-7-methoxy-1,3-benzothiazol-2-amine (116). […] Hydrazine hydrate (0.23 mL, 4.77 mmol) and CH3COOH (0.12 mL, 2.1 mmol) were added to a suspension of 56 (0.29 g, 1.59 mmol) in ethylene glycol (8 mL), and the reaction mixture was stirred for 24 h at 125° C. […] 6-Ethyl-2-hydrazino-1,3-benzothiazole (69). […] 6-Ispropyl-2-hydrazino-1,3-benzothiazole (70). […] 2-Hydrazino-4,7-dimethoxy-1,3-benzothiazole (73). […] 2-Hydrazino-5,7-dimethoxy-1,3-benzothiazole (75). […] 2-Hydrazino-4,7-Diethoxy-1,3-benzothiazole (77). […] 2-Hydrazino-5-methyl[1,3]thiazolo[5,4-b]pyridine (100). […] A solution of 67 (0.13 g, 0.65 mmol) in formic acid (5 mL) was refluxed for 10 h. The reaction mixture was then poured into ice/water and the pH was neutralized using a saturated solution of NaHCO3.

PARP2 = molecular target: T2, PARP2 (Homo sapiens, UniProt Q9UGN5); test: biochemical; assay type: biochemical; conditions: NAD+ consumption assay; > less than 50% inhibition at highest concentration, >> no inhibition
T2 construct: made in house
T2 sequence (Q9UGN5 whole entry): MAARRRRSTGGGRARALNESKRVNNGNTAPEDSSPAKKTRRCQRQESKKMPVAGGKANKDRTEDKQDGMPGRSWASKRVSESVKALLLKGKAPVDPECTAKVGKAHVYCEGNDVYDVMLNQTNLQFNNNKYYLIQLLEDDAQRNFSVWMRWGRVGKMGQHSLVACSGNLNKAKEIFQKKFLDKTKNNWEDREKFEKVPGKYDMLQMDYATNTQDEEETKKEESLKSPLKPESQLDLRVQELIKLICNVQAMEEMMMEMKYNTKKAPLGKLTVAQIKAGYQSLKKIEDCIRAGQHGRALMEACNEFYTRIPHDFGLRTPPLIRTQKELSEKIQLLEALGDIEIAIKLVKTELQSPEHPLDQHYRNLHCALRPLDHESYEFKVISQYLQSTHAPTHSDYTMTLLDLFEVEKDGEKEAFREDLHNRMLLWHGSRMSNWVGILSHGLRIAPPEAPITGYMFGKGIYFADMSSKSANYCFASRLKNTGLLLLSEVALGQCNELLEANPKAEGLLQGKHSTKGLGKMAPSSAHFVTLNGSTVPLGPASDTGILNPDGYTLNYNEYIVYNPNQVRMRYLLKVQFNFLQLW
Experimental: as §1

[1] = Toxicity using the WST-1 assay
PARP15 = molecular target: T3, PARP15 (Homo sapiens, UniProt Q460N3); test: biochemical
T3 sequence (Q460N3 1-678): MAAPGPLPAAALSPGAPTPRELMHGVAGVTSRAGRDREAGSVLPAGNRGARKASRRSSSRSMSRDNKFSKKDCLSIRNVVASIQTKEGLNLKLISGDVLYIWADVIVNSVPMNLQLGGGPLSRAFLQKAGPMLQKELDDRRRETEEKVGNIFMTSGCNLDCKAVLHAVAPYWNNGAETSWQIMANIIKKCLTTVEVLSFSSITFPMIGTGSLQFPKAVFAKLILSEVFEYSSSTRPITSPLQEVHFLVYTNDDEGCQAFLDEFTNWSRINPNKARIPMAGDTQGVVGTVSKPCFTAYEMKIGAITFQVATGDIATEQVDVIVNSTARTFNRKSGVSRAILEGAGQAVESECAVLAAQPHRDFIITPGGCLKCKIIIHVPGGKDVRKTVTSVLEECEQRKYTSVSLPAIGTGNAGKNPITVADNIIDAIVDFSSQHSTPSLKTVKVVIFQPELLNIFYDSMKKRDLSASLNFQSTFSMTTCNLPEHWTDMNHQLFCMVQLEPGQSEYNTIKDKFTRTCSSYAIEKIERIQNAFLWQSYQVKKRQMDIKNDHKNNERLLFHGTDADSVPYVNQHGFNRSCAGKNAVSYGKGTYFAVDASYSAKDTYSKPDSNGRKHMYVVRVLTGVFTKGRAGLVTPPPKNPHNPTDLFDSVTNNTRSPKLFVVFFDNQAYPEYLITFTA
Experimental: as §1

PARP10 = molecular target: T4, PARP10 (Homo sapiens, UniProt Q53GL7); test: Activity assay measuring NAD+ consumption, PARP10 (Tables 1-3); assay type: biochemical
T4 construct: made in house
T4 sequence (Q53GL7 1-1025): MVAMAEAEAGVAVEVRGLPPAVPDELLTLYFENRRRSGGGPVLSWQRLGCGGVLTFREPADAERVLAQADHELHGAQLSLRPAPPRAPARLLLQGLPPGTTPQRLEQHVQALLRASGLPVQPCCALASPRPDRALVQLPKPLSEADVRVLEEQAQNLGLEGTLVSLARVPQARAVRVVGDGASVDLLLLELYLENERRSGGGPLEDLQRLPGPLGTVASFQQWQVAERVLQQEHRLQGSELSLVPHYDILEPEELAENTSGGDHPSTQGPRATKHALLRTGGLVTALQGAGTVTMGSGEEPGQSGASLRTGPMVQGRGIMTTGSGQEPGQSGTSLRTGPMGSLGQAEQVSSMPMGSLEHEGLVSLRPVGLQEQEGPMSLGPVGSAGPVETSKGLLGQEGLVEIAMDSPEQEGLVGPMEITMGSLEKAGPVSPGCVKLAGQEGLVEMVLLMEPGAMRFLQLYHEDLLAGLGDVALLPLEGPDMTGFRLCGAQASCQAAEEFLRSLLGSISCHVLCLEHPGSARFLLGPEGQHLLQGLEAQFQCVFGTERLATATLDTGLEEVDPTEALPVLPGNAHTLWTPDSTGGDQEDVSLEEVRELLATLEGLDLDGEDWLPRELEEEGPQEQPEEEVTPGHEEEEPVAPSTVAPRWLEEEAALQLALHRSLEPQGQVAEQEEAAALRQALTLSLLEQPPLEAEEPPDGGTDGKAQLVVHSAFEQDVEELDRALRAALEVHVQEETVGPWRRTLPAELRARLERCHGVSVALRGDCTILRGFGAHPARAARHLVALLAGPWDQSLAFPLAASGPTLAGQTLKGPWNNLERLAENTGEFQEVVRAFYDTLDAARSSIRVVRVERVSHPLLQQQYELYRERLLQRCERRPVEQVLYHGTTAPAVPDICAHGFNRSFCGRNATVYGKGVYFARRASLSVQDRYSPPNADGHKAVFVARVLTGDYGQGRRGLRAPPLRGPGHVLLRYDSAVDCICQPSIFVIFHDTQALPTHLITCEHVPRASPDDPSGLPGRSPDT

[2] = read-out: PARP15 IC50, Tables 1-3 assay, > less than 50% inhibition, >> no inhibition at reported concentration, * value limited by protein concentration
[3] = Tables 1-3 assay, > less than 50% inhibition, >> no inhibition at reported concentration, * value limited by protein concentration, read-out: PARP10 IC50
[4] = PARP10 IC50, Tables 1-3 assay, > less than 50% inhibition, >> no inhibition at reported concentration, * value limited by protein concentration
[5] = PARP10 pIC50 ± SEM, Tables 1-3 assay

SMILES: Oc1ccc(O)c2c1sc1nncn12 [Compound 17, [1,2,4]Triazolo[3,4-b][1,3]benzothiazol-5,8-diol]
- IC50 (TNKS2): 3100 nM
- IC50 (PARP2): 240 nM
- toxicity (WST-1 assay) [1]: dose dependent toxicity

SMILES: COc1ccc(OC)c2c1SC1=NNC(SC)N12 (stereo not drawn) [Compound 27, 5,8-Dimethoxy-3-(methylthio)-2,3-dihydro[1,2,4]triazolo[3,4-b][1,3]benzothiazole]
- IC50 (PARP15; [2]): > 10000 nM
- IC50 (PARP10; [3]): > 10000 nM

SMILES: COc1ccc(OC)c2c1SC1=NNC(NC(=O)c3ccc(Cl)cc3)N12 (stereo not drawn) [Compound 29, 4-Chloro-N-(5,8-dimethoxy-2,3-dihydro[1,2,4]triazolo[3,4-b][1,3]benzothiazol-3-yl)benzamide]
- IC50 (PARP15; [2]): 7900 nM
- IC50 (PARP10; [3]): > 10000 nM

SMILES: c1cnc2sc3nncn3c2c1 [Compound 101, [1,2,4]Triazolo[3′,4′:2,3][1,3]thiazolo[5,4-b]pyridine]
- inhibition of PARP10 (in words) (PARP10): only weak inhibition
- IC50 (PARP10; [4]): 30000 nM

SMILES: CCOc1ccc(OCC)c2c1sc1nncn12 [Compound 102, 5,8-Diethoxy[1,2,4]triazolo[3,4-b][1,3]benzothiazole]
- inhibition of PARP10 (in words) (PARP10): potent PARP10 inhibitors
- IC50 (PARP10; PARP10 IC50, Tables 1-3 assay): 610 nM

SMILES: CCOc1ccc(OCC)c2c1sc1nnc(N)n12 [Compound 103, 5,8-Diethoxy[1,2,4]triazolo[3,4-b][1,3]benzothiazol-3-amine]
- inhibition of PARP10 (in words) (PARP10): potent PARP10 inhibitors
- IC50 (PARP10; PARP10 IC50, Tables 1-3 assay): 72 nM

SMILES: COc1cc2sc3nnc(N)n3c2cc1OC [Compound 104, 6,7-Dimethoxy[1,2,4]triazolo[3,4-b][1,3]benzothiazol-3-amine]
- IC50 (PARP15; PARP15 IC50, Tables 1-3 assay): 170 nM
- IC50 (PARP10; PARP10 IC50, Tables 1-3 assay): 110 nM
- IC50 (PARP10; [5]): 107 nM

SMILES: CC(=O)Nc1nnc2sc3cc(C)ccc3n12 [Compound 107, N-(7-methyl[1,2,4]triazolo[3,4-b][1,3]benzothiazol-3-yl)acetamide]
- IC50 (PARP15; PARP15 IC50, Tables 1-3 assay, > less than 50% inhibition, >> no inhibition at reported concentration, * value limited by protein concentration): 5200 nM
- IC50 (PARP10; [4]): 2600 nM

SMILES: Nc1nnc2sc3cc(Br)ccc3n12 [Compound 108, 7-Bromo[1,2,4]triazolo[3,4-b][1,3]benzothiazol-3-amine]
- IC50 (PARP15; PARP15 IC50, Tables 1-3 assay): 150 nM
- IC50 (PARP15; PARP15 pIC50 ± SEM, Tables 1-3 assay): 145 nM
- IC50 (PARP10; PARP10 IC50, Tables 1-3 assay): 60 nM

SMILES: COc1ccc(OCC(C)C)c2c1sc1nnc(N)n12 [Compound 110, 5-Isobutoxy-8-methoxy[1,2,4]triazolo[3,4-b][1,3]benzothiazol-3-amine]
- IC50 (PARP15): 180 nM
- IC50 (PARP10; PARP10 IC50, Tables 1-3 assay): 80 nM
- IC50 (PARP10; [5]): 81.3 nM

Reference: US20250177359A1, “COMPOUNDS FOR USE IN THE TREATMENT OF CANCER AND INFLAMMATORY CONDITIONS” (priority 2022, published 2025)
